Experimental data taken from patent US20210238225A1, “PEPTIDOMIMETIC INHIBITORS OF THE PEPTIDYL-PROLYL CIS/TRANS ISOMERASE (PIN1)” (DANA-FARBER CANCER INSTITUTE, INC., priority 2018, published 2021).
“Also recorded” adds a separate entry of the source. Read-outs that look alike come from different tables or passages of the source. Non-standard residues stand in square brackets, D forms with d. Residues, ends and D or L forms follow the SMILES beside them. *: point of attachment. Biotinyl(3aR,4R,6aS) = O=C1N[C@@H]2[C@@H](CS[C@@H]2CCCCC(=O)*)N1; Ala(4-thiazolyl) = N[C@@H](Cc1cscn1)C(=O)O; Phe(4-F) = N[C@@H](Cc1ccc(F)cc1)C(=O)O; X2 = C[C@H]1NC(=O)N[C@H]1CCCCCC(=O)*; NH(4-Me-benzyl) = Cc1ccc(CN*)cc1; NMeF = CN[C@@H](Cc1ccccc1)C(=O)O; Cit = NC(=O)NCCC[C@H](N)C(=O)O; Pip = O=C(O)[C@@H]1CCCCN1; Piperidide = C1CCN(*)CC1; NHcBu = C1CC(N*)C1; NHtBu = CC(C)(C)N*; ClAc = O=C(CCl)*

Assays:
[1] = molecular target: T1, Pin1 (Homo sapiens, UniProt Q13526); assay: Cellular target engagement, live cell biotin competition assay in TNBC MDA-MB-231 cells; assay type: cell-based; parameters: endogenous in cells; host or cells: MDA-MB-231; details: TNBC MDA-MB-231 cells, 5 hours treatment; concentration under E7
Description: TNBC MDA-MB-231 cells were plated in 10 cm plates with 2.5 million cells per plate in 6 mL of media. The day after plating, cells were treated with the indicated concentrations of compound 18 for 5 hours. The cells were washed 2× with 0.9% NaCl (1 mL per 10 cm plate), and collected by scraping with a cell scraper. Cells were lysed in lysis buffer (50 mM Hepes pH 7.5, 150 mM NaCl, 1 mM EDTA, 10% v/v glycerol, 0.5% v/v […], protease inhibitors (Roche)) using 210 μL of cell lysis buffer per 10 cm plate of cells. After clarifying by centrifugation (14,000 rpm for 15 min at 4° C.), 5 μL of each lysate sample was combined with 5 μL of 2× LDS+10% β-mercaptoethanol, boiled for 5 minutes, and set aside for the input loading control (later to be loaded directly in the gel). Then, 200 μL of each lysate was then incubated with 1 μM of compound 2-32 (biotin probe compound) for 1 hour at 4° C. Lysates were then incubated with streptavidin agarose resin (30 μL of 1:1 beads: lysis buffer slurry) (Thermo Scientific™, cat. #20349) for 2 hours at 4° C. Beads were washed 4 times with 500 μL of washing buffer (50 mM Hepes, pH7.5, 10 mM NaCl, 1 mM EDTA, 10% glycerol), then pelleted by centrifugation and dried. The beads were then boiled at 95° C. for 5 minutes in 30 μL of 2× LDS+10% β-mercaptoethanol. Lysates were probed for specified proteins by western blotting using the Bolt system (Life Technologies™).

[2] = molecular target: Pin1 (GST-Pin1) (Homo sapiens, UniProt Q13526); assay: Fluorescence polarization (FP) assay, binding to Pin1
[3] = molecular target: T1, Pin1; assay: Lysate target engagement (pull down with biotinylated probes; competition assay); assay type: binding; parameters: endogenous in cells; host or cells: MDA-MB-231; details: for pull down of Pin1 from lysate (FIG. 5A): 1 μM; for Lysate Target Engagement?: TNBC-MDA-MB-231 lysate, biotin/dtb probes: pull down, others: competition, concentration under E5; for Lysate Target Engagement? concentration stated for the engagement or pull down: read with the E4 line of the same compound (complete, partial, probe pull down)
Description: (§1) TNBC-MDA-MB-231 cells were lysed in lysis buffer (50 mM Hepes pH 7.5, 150 mM NaCl, 1 mM ethylenediaminetetraacetic acid (EDTA), 10% v/v glycerol, 0.5% v/v NP-40, protease inhibitors (Roche)). After clarifying by centrifugation (14,000 rpm for 15 min at 4° C.), lysates were incubated with the indicated concentrations of candidate compound for 1 hour at 4° C. (500 μg of protein per sample, as determined by BCA). Lysates were then incubated with streptavidin agarose resin (30 μL of 1:1 beads: lysis buffer slurry) (Thermo Scientific™, cat. #20349) for 2 hours at 4° C. Beads were washed 4 times with 500 μL of washing buffer (50 mM Hepes, pH 7.5, 10 mM NaCl, 1 mM EDTA, 10% glycerol), then pelleted by centrifugation and dried. The beads were then boiled at 95° C. for 5 minutes in 30 μL of 2× LDS+10% β-mercaptoethanol. Lysates were probed for specified proteins by western blotting using the Bolt system (Life Technologies™).
as §1, with “mM EDTA,” for “mM ethylenediaminetetraacetic acid (EDTA),”, “by centrifugation,” for “by centrifugation (14,000 rpm for 15 min at 4° C.),”, “were pre-incubated” for “were incubated”, “of” for “of candidate”, “compound 18 overnight” for “compound for 1 hour”, “BCA). The lysates were then incubated with 1 μM of compound 2c (desthiobiotin probe) for 1 hour at 4° C.” for “BCA).”

[4] = Ki, μM (FP Assay), competition with fluorescein-labeled peptide probe, 12 hours pre-incubation at 4° C., Kenakin Ki equation
[5] = competition with fluorescein-labeled peptide probe, 12 hours pre-incubation at 4° C., Kenakin Ki equation, read-out: Ki, μM (FP Assay)
[6] = Ki quoted in figure legend, assay not named

Chain of Pin1 (GST-Pin1) (Q13526 whole entry): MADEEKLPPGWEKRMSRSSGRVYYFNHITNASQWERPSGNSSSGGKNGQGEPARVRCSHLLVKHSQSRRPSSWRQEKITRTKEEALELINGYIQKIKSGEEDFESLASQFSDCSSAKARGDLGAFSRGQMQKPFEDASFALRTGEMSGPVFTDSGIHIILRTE
T1 sequence (Q13526 whole entry): as above

Row | SMILES | Cellular Target Engagement? [1] | Ki [2, 4] | Ki [2, 5] | Lysate Target Engagement? [3] | Lysate Target Engagement? concentration stated for the engagement or pull down [3] | further results
1 | COC(=O)CC[C@H](NC(=O)CCl)C(=O)N1CCCC[C@H]1C(=O)N[C@@H](Cc1c[nH]c2ccccc12)C(=O)N[C@@H](Cc1ccc(F)cc1)C(=O)NC(C)(C)C [Compound 11-18, Methyl (S)-5-((S)-2-(((S)-1-(((S)-1-(tert-butylamino)-3-(4-fluorophenyl)-1-oxopropan-2-yl)amino)-3-(1H-indol-3-yl)-1-oxopropan-2-yl)carbamoyl)piperidin-1-yl)-4-(2-chloroacetamido)-5-oxopentanoate] (ClAc-E(OMe)[Pip]W[Phe(4-F)]-NHtBu) | No | 0.134 µM |  |  |  | 
2 | NC(=O)NCCC[C@H](NC(=O)[C@H](Cc1c[nH]c2ccccc12)NC(=O)[C@@H]1CCCCN1C(=O)[C@H](Cc1ccccc1)NC(=O)CCl)C(=O)N1CCCCC1 [Compound 11-39, (S)—N—((S)-3-(1H-indol-3-yl)-1-oxo-1-(((S)-1-oxo-1-(piperidin-1-yl)-5-ureidopentan-2-yl)amino)propan-2-yl)-1-((2-chloroacetyl)-L-phenylalanyl)piperidine-2-carboxamide] (ClAc-F[Pip]W[Cit]-Piperidide) | No |  | 0.017 µM |  |  | 
3 | COC(=O)CC[C@H](NC(=O)CCl)C(=O)N1CCCC[C@H]1C(=O)N[C@@H](Cc1c[nH]c2ccccc12)C(=O)N[C@@H](Cc1cscn1)C(=O)NCc1ccc(C)cc1 [Compound 11-28, Methyl (S)-5-((S)-2-(((S)-3-(1H-indol-3-yl)-1-(((S)-1-((4-methylbenzyl)amino)-1-oxo-3-(thiazol-4-yl)propan-2-yl)amino)-1-oxopropan-2-yl)carbamoyl)piperidin-1-yl)-4-(2-chloroacetamido)-5-oxopentanoate] (ClAc-E(OMe)[Pip]W[Ala(4-thiazolyl)]-{NH(4-Me-benzyl)}) | No | 0.099 µM |  |  |  | 
4 | COC(=O)CC[C@H](NC(=O)CCl)C(=O)N1CCCC[C@H]1C(=O)N[C@@H](Cc1c[nH]c2ccccc12)C(=O)N[C@@H](Cc1ccc(F)cc1)C(=O)NC1CCC1 [Compound 11-19, Methyl (S)-4-(2-chloroacetamido)-5-((S)-2-(((S)-1-(((S)-1-(cyclobutylamino)-3-(4-fluorophenyl)-1-oxopropan-2-yl)amino)-3-(1H-indol-3-yl)-1-oxopropan-2-yl)carbamoyl)piperidin-1-yl)-5-oxopentanoate] (ClAc-E(OMe)[Pip]W[Phe(4-F)]-NHcBu) | No | 0.146 µM |  |  |  | 
5 | C[C@H](NC(=O)[C@H](C)NC(=O)[C@H](CCCNC(N)=O)NC(=O)[C@H](Cc1c[nH]c2ccccc12)NC(=O)[C@@H]1CCCCN1C(=O)[C@@H](CCC(=O)O)NC(=O)CCl)C(=O)N[C@@H](CCCCNC(=O)CCCC[C@H]1SC[C@H]2NC(=O)N[C@H]21)C(N)=O [Compound 2-30, (R)-5-((S)-2-(((2S,5S,8S,11S)-14-Carbamoyl-1-(1H-indol-3-yl)-8,11-dimethyl-3,6,9,12,20-pentaoxo-24-((3aR,4R,6aS)-2-oxohexahydro-1H-thieno[3,4-d]imidazol-4-yl)-5-(3-ureidopropyl)-4,7,10,13,19-pentaazatetracosan-2-yl)carbamoyl)piperidin-1-yl)-4-(2-chloroacetamido)-5-oxopentanoic acid] (ClAc-[dE][Pip]W[Cit]AAK(Biotinyl(3aR,4R,6aS))-NH2) |  |  | 1.6 µM |  |  | pull down of Pin1 from lysate (FIG. 5A) ([3]; TNBC MDA-MB-231 lysate): unable to pull down Pin1; also recorded: did not
6 | COC(=O)CC[C@H](NC(=O)CCl)C(=O)N1CCCC[C@H]1C(=O)N[C@@H](Cc1c[nH]c2ccccc12)C(=O)N[C@@H](Cc1ccc(O)cc1)C(N)=O [Compound 2-22, Methyl (S)-5-((S)-2-(((S)-1-(((S)-1-Amino-3-(4-hydroxyphenyl)-1-oxopropan-2-yl)amino)-3-(1H-indol-3-yl)-1-oxopropan-2-yl)carbamoyl)piperidin-1-yl)-4-(2-chloroacetamido)-5-oxopentanoate] (ClAc-E(OMe)[Pip]WY-NH2) |  |  | 0.154 µM | Yes-partial | at 10 μM | 
7 | C[C@H]1NC(=O)N[C@H]1CCCCCC(=O)NCCCC[C@H](NC(=O)[C@H](CCCNC(N)=O)NC(=O)[C@H](Cc1c[nH]c2ccccc12)NC(=O)[C@@H]1CCCCN1C(=O)[C@H](Cc1ccccc1)N(C)C(=O)CCl)C(N)=O [Compound 2c, (S)—N—((S)-1-(((S)-1-(((S)-1-Amino-6-(6-((4S,5R)-5-methyl-2-oxoimidazolidin-4-yl)hexanamido)-1-oxohexan-2-yl)amino)-1-oxo-5-ureidopentan-2-yl)amino)-3-(1H-indol-3-yl)-1-oxopropan-2-yl)-1-(N-(2-chloroacetyl)-N-methyl-L-phenylalanyl)-piperidine-2-carboxamide] (ClAc-[NMeF][Pip]W[Cit]K(X2)-NH2) |  |  |  | Yes-(dtb | at 0.5 μM | Ki [2, 6]: 0.015 µM
8 | C[C@H](NC(=O)[C@H](C)NC(=O)[C@H](CCCNC(N)=O)NC(=O)[C@H](Cc1c[nH]c2ccccc12)NC(=O)[C@@H]1CCCCN1C(=O)[C@H](CCC(=O)O)NC(=O)CCl)C(=O)N[C@@H](CCCCNC(=O)CCCC[C@H]1SC[C@H]2NC(=O)N[C@H]21)C(N)=O [Compound 2-25, (S)-5-((S)-2-(((2S,5S,8S,11S)-14-Carbamoyl-1-(1H-indol-3-yl)-8,11-dimethyl-3,6,9,12,20-pentaoxo-24-((3aR,4R,6aS)-2-oxohexahydro-1H-thieno[3,4-d]imidazol-4-yl)-5-(3-ureidopropyl)-4,7,10,13,19-pentaazatetracosan-2-yl)carbamoyl)piperidin-1-yl)-4-(2-chloroacetamido)-5-oxopentanoic acid] (ClAc-E[Pip]W[Cit]AAK(Biotinyl(3aR,4R,6aS))-NH2) |  |  |  | Yes-(Biotin | at 1 μM | Ki ([2]; read-out: Ki quoted in figure legend, assay not named): 0.02 µM; pull down of Pin1 from lysate (FIG. 5A) ([3]; TNBC MDA-MB-231 lysate): able to pull down Pin1; also recorded: pulled down Pin1
9 | CN(C(=O)CCl)[C@@H](Cc1ccccc1)C(=O)N1CCCC[C@H]1C(=O)N[C@@H](Cc1c[nH]c2ccccc12)C(=O)N[C@@H](CCCNC(N)=O)C(=O)N[C@@H](CCCCNC(=O)CCCC[C@H]1SC[C@H]2NC(=O)N[C@H]21)C(N)=O [Compound 2-32, (S)—N—((S)-1-(((S)-1-(((S)-1-Amino-1-oxo-6-(5-((3aR,4R,6aS)-2-oxohexahydro-1H-thieno[3,4-d]imidazol-4-yl)pentanamido)hexan-2-yl)amino)-1-oxo-5-ureidopentan-2-yl)amino)-3-(1H-indol-3-yl)-1-oxopropan-2-yl)-1-(N-(2-chloroacetyl)-N-methyl-L-phenylalanyl)piperidine-2-carboxamide] (ClAc-[NMeF][Pip]W[Cit]K(Biotinyl(3aR,4R,6aS))-NH2) |  | 0.018 µM |  | Yes-(Biotin | at 0.5 μM | Ki [2, 6]: 0.018 µM; pull down of Pin1 from lysate (FIG. 5B) ([3]; TNBC MDA-MB-231 lysate, 500 nM and 1 μM): able to pull down Pin1; also recorded: pulled down Pin1
